This note sets out measurements from patent US12617777B2, “GPR84 antagonists and uses thereof” (Liminal BioSciences Limited, priority 2021, dated 2026).

This assay addresses T1, human GPR84 receptor (Homo sapiens, UniProt Q9NQS5).
T1 construct: host or cells: HEK293, transient transfection
Put plainly: Gαi biosensor BRET assay in HEK293 cells (antagonism of ZQ-16). It counts as cell-based. The conditions noted are these: for inhibition at 10 µM: HEK293, single concentration 10 μM (designated F); for inhibition at 2 µM: HEK293, single concentration 2 μM (designated A); for inhibition at 25 µM: HEK293, single concentration 25 μM (designated I); for IC50: HEK293 cells, antagonism of 200 nmol/L ZQ-16. Summed up: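 HEK293 cells transiently expressing human GPR84, Gαi2-Rluc8, GFP10-Gγ2 and Gβ1, in Tyrode's buffer pH 7.5. Compounds preincubated 5 min at 37° C, then 200 nmol/L ZQ-16 for 5 min at room temperature; coelenterazine 400A 5 μmol/L. BRET2 acceptor/donor ratio, background- and vehicle-corrected net BRET.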
For orientation: Bioluminescence resonance energy transfer reports proximity on the nanometre scale.

T1 sequence (Q9NQS5 whole entry): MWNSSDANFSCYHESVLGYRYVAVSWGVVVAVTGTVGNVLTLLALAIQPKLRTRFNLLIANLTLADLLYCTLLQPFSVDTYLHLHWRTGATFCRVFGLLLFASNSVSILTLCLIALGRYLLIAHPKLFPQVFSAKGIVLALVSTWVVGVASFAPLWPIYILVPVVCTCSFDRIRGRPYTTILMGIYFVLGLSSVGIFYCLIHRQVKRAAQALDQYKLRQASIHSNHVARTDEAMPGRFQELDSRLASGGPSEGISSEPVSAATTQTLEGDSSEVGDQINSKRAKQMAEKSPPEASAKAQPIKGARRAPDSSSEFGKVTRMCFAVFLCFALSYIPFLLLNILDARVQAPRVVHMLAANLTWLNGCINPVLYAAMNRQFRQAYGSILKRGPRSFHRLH

The inhibition is the share of the control response that was lost under treatment. Low readings indicate a response near the control, high ones a response far below the control. For `CNC1(C)CN(c2ccc(-c3cn(CC4CCCCO4)nn3)c(C)c2)C1` (stereo not drawn) [Compound I-506], the inhibition at 10 µM lay in the range of 50 to 75%.
In turn, `Cc1cc(C#CCN2CC(C)(C)C2)ccc1-c1cn(CC2OCC(F)(F)CO2)nn1` [Compound I-700] registered an inhibition at 2 µM of 50 to 75%.
`Cc1cc(OC2CN3CCC2CC3)ccc1-c1cn(CC2CCCCO2)nn1` (stereo not drawn) [Compound I-465] returned an inhibition at 10 µM of no more than 25%.
Take `CC(C)(C)C#Cc1ccc(-c2cn(CC3CCCCO3)nn2)cc1` (stereo not drawn) [Compound I-58]: the inhibition at 25 µM is no more than 25%.
`C(#CC1CC1)c1ccc(-c2cn(CC3CCCCO3)nn2)c(N2CCOCC2)c1` (stereo not drawn) [Compound I-198] gave an inhibition at 10 µM of 25 to 50%.
The term IC50 denotes the concentration at which inhibition is half-maximal. A low value points to greater potency in that assay. For `CCc1ccc(C#CC2CC2)cc1-c1cn(CC2CCCCO2)nn1` (stereo not drawn) [Compound I-160], the inhibition at 10 µM was greater than 75% and the IC50 was greater than 3000 nM.
As to `CC(c1cc(C#CC2CC2)ccn1)c1cn(CC2CCCCO2)nn1` (stereo not drawn) [Compound I-633], the inhibition at 10 µM was in the range of 50 to 75%.
The same measure, in the same setting: to `Cc1cc(N2CCC(N(C)Cc3ccccc3)CC2)ccc1-c1cn(CC2CCCCO2)nn1` (stereo not drawn) [Compound I-141] belongs no more than 25%.
For the compound `CC(O)(c1cccc(C#CC2CC2)c1)c1cn(CC2CCCCO2)nn1` (stereo not drawn) [Compound I-496], the inhibition at 10 µM lay in the range of 25 to 50%.
Regarding `Cc1cc(C#CC2CC2)cnc1-c1cn(CC2OCC(F)(F)CO2)nn1` [Compound I-713], the inhibition at 10 µM lay within 50 to 75% and the IC50 was 300 to 1000 nM.
Consider `COC(=O)NCC#Cc1cnc(-c2cn(CC3CCCCO3)nn2)c(C)c1` (stereo not drawn) [Compound I-573], for which the inhibition at 10 µM was greater than 75%.
Same read-out and setting: to `Cc1ccc(C#CC2CC2)cc1S(=O)(=O)c1cn(CC2OCC(C)(C)CO2)nn1` [Compound I-783, 4-((5-(cyclopropylethynyl)-2-methylphenyl)sulfonyl)-1-((5,5-dimethyl-1,3-dioxan-2-yl)methyl)-1H-1,2,3-triazole] belongs no more than 25%.
Turning to `CN(C)c1cc(N2CC(CO)(CO)C2)ccc1-c1cn(CC2OCC(C)(C)CO2)nn1` [Compound I-667], the inhibition at 10 µM is greater than 75% and the IC50 is 300 to 1000 nM.
Consider `C(#CC1CC1)c1ccc(-c2nnn(CC3CCCCO3)n2)cc1` (stereo not drawn) [Compound I-1], for which the inhibition at 25 µM was no more than 25%.
As for `COC(c1cn(CC2CCCCO2)cn1)c1cc(C#CC2CC2)ccc1C` (stereo not drawn) [Compound I-646], the inhibition at 2 µM was greater than 75% and the IC50 was 300 to 1000 nM.
For `Cc1ccc(-c2ccc(-c3cn(C[C@H]4COc5ccccc5O4)nn3)cc2)cn1` [Compound I-26], the inhibition at 25 µM is no more than 25%.
In the case of `Cc1ccc(C#CC2CC2)cc1Cc1nnnn1CC1CCCCO1` (stereo not drawn) [Compound I-419], the inhibition at 10 µM lay in the range of 25 to 50%.
`CCc1cc(C#CCNC(=O)OC(C)C)ccc1-c1cn(CC2CCCCO2)nn1` (stereo not drawn) [Compound I-598]: the inhibition at 10 µM is greater than 75% and the IC50 fell in the range of 1000 to 3000 nM.
The compound `Cc1cc(C#CCO)ccc1-c1cn(CC2OCC(F)(F)CO2)nn1` [Compound I-692] returned an inhibition at 10 µM of 50 to 75%.
As to `Cc1cc(C#CC2CC2)ccc1-c1cn(Cc2ccn(C)n2)nn1` [Compound I-543], the inhibition at 2 µM is no more than 25%.
Consider `Cc1ccc(-c2cccc(-c3cn(C[C@H]4CCCCO4)nn3)c2)cn1` [Compound I-33], for which the inhibition at 25 µM fell in the range of 25 to 50%.
`Cc1c(C#CC2CC2)cccc1C(C)c1cn(C[C@H]2CCCCO2)nn1` (stereo partly drawn) [Compound I-741] yielded an inhibition at 10 µM greater than 75%.
`Cc1cc(C#CC2CC2)ccc1-c1cn(CCOCC2COCCO2)nn1` (stereo not drawn) [Compound I-92] yielded an inhibition at 25 µM of 25 to 50%.
In turn, `Cc1cc(C#CCN)ccc1-c1cn(CC2OCC(C)(C)CO2)nn1` [Compound I-690] came in with an inhibition at 10 µM of 25 to 50%.
With `CN(C)c1cc(N2CC(C)(CO)C2)c(F)cc1-c1cn(CC2OCC3(CC3)CO2)nn1` [Compound I-784], the IC50 is no more than 300 nM.
`Cc1ccc(C#CC2CC2)cc1C1(c2cn(CC3CCCCO3)nn2)CC1` (stereo not drawn) [Compound I-679, 4-(1-(5-(cyclopropylethynyl)-2-methylphenyl)cyclopropyl)-1-((tetrahydro-2H-pyran-2-yl)methyl)-1H-1,2,3-triazole]: the inhibition at 10 µM is greater than 75%.
For the compound `Cc1c(C#CC2CC2)cccc1-c1nnn(CC2CCCCO2)n1` (stereo not drawn) [Compound I-8], the inhibition at 25 µM is no more than 25%.
In turn, `Cc1ccc(-c2ccc(-c3cn(C[C@H]4CCCCO4)nn3)nc2)cn1` [Compound I-32] showed an inhibition at 10 µM of no more than 25%.
Still for that read-out and setting: then `CC(c1cccc(C#CC2CC2)c1)c1cn(CC2CCCCO2)nn1` (stereo not drawn) [Compound I-302], with greater than 75%.
Same read-out and setting: to `Cc1ccc(C#CC2CC2)cc1-c1cn(CC2OCCCC2(C)C)nn1` (stereo not drawn) [Compound I-568] belongs no more than 25%; to `CNC1CCN(c2ccc(-c3cn(CC4CCCCO4)nn3)c(C)c2)CC1` (stereo not drawn) [Compound I-128], no more than 25%.
`Cc1cc(N2CCN(Cc3ccccn3)CC2)ccc1-c1cn(CC2OCC(C)(C)CO2)cn1` [Compound I-682] came in with an inhibition at 10 µM greater than 75% and an IC50 of 300 to 1000 nM.
Compound `Cc1cc(OCC(C)(C)N(C)C)ccc1-c1cn(C[C@H]2CCCCO2)nn1` [Compound I-289] yielded an inhibition at 10 µM of 25 to 50%.
`Cc1cc(C#CC2CC2)ccc1-c1cn(CC2CNCCO2)nn1` (stereo not drawn) [Compound I-180] came in with an inhibition at 10 µM of no more than 25%.
The compound `Cc1cc(N2CC(C)(CO)C2)c(F)cc1-c1cn(C[C@@H]2CCCCO2)nn1` [Compound I-805] came in with an inhibition at 2 µM greater than 75%.
`Cc1cc(C#CC2CC2)ccc1-c1cnn(CC2CCCCO2)c1` (stereo not drawn) [Compound I-324] showed an inhibition at 25 µM of no more than 25%.
Consider `CN(C)c1cc(N2CC(C)(CO)C2)ccc1-c1cn(CC2OCC3(CCC3)O2)nn1` (stereo not drawn) [Compound I-728], for which the inhibition at 10 µM was greater than 75%.
On to `CCn1c(C#CC2CC2)cnc1-c1cn(CC2CCCCO2)nn1` (stereo not drawn) [Compound I-285], for which the inhibition at 10 µM was greater than 75%.
`Cc1ccc(C#CC2CC2)cc1C(=O)c1cn(CC2CCCCO2)nn1` (stereo not drawn) [Compound I-591] returned an inhibition at 10 µM greater than 75% and an IC50 of 300 to 1000 nM.
The compound `CCc1cc(N2CC(C)(C)C2)ccc1-c1cn(CC2Oc3ccccc3O2)nn1` [Compound I-647] displayed an inhibition at 2 µM greater than 75% and an IC50 of 300 to 1000 nM.
In the case of `Cc1cc(C#CC(C)O)ccc1-c1cn(CC2CCCCO2)nn1` (stereo not drawn) [Compound I-78], the IC50 is 1000 to 3000 nM.
The compound `C(#CC1CC1)c1ccc(-c2cn(CC3CCc4ccccc4O3)nn2)cc1` (stereo not drawn) [Compound I-41] gave an inhibition at 25 µM of no more than 25%.
`c1ccc(COc2ccc3c(c2)CCc2cn(CC4CCCCO4)nc2-3)cc1` (single isomer, unassigned) [Compound I-330] returned an inhibition at 10 µM of no more than 25% and an IC50 of 300 to 1000 nM.
Regarding `C(#CC1CC1)c1ccc(Cc2cn(CC3CCCCO3)nn2)cc1` (stereo not drawn) [Compound I-298], the inhibition at 10 µM lay in the range of 25 to 50%.
Consider `C(#CC1CC1)c1ccc(-c2cnn(CC3CCCCO3)c2)cc1` (stereo not drawn) [Compound I-317], for which the inhibition at 25 µM is no more than 25%.
For `C(#CC1CC1)c1ccc(-c2cn(C[C@H]3CCCO3)nn2)cc1` [Compound I-27], the inhibition at 25 µM lay in the range of 25 to 50% and the IC50 was greater than 3000 nM.
`Cc1cc(N2CC3(CCCN3c3ccccn3)C2)ccc1-c1cn(CC2CCCCO2)nn1` (stereo not drawn) [Compound I-623] yielded an inhibition at 10 µM of 50 to 75%.
On the same count and under the same terms, to `Cc1cc(N2CCC3(CC2)CN(Cc2ccccc2)C3)ccc1-c1cn(CC2CCCCO2)nn1` (stereo not drawn) [Compound I-173] belongs no more than 25%.
`Cc1cc(C#CC2CC2)ccc1-c1cn(CC2CCCC(C)(C)O2)nn1` (stereo not drawn) [Compound I-610]: the inhibition at 2 µM was no more than 25%.
In turn, `Cc1cc(N2CC3(CCCN3)C2)ccc1-c1cn(CC2CCCCO2)nn1` (stereo not drawn) [Compound I-147] registered an inhibition at 10 µM of no more than 25%.
`Cc1cc(C#CCN2CC(C)(C)C2)cnc1-c1nnn(CC2OCC(C)(C)CO2)n1` [Compound I-835]: the inhibition at 10 µM is no more than 25%.
Regarding `Cc1cc(C#CCN2CC(C)(C)C2)cnc1-c1cn(CCc2ncccn2)nn1` [Compound I-717], the inhibition at 10 µM is no more than 25%.
The compound `C(#CC1CC1)c1ccc(-n2cc(CC3CCCO3)nn2)cc1` (stereo not drawn) [Compound I-295] displayed an inhibition at 25 µM of no more than 25%.
`Cc1cc(N2CCC3(CC2)CNC3)ccc1-c1cn(CC2CCCCO2)nn1` (stereo not drawn) [Compound I-186]: under “HEK293, single concentration 5 μM (designated D)”, the inhibition at 5 µM was no more than 25%.
Consider `CC1(CO)CN(c2ccc(-c3cn(CC4OCC5(CCC5)O4)nn3)c(OC3CC3)c2)C1` (stereo not drawn) [Compound I-810], for which the inhibition at 10 µM was greater than 75% and the IC50 fell in the range of 300 to 1000 nM.
In the case of `CC(=O)N(c1cn(CC2OCC(C)(C)CO2)nn1)c1cc(C#CC2CC2)ccc1C` [Compound I-792, N-(5-(cyclopropylethynyl)-2-methylphenyl)-N-(1-((5,5-dimethyl-1,3-dioxan-2-yl)methyl)-1H-1,2,3-triazol-4-yl)acetamide], the inhibition at 2 µM is greater than 75% and the IC50 was in the range of 300 to 1000 nM.
`Cc1cc(C#CC2CC(F)(F)C2)cnc1-c1cn(CC2CCCCO2)nn1` (stereo not drawn) [Compound I-648] gave an inhibition at 10 µM greater than 75%.
Compound `CCc1cc(C#CC2CC2)cnc1-c1cn(CC2CCCCO2)nn1` (stereo not drawn) [Compound I-220] showed an inhibition at 10 µM greater than 75% and an IC50 of 300 to 1000 nM.
The compound `Cc1cc(N2CC(C)(CO)C2)cnc1-c1cn(CC2Oc3ccccc3O2)nn1` [Compound I-628] came in with an inhibition at 10 µM greater than 75%.
On the same count and under the same terms, to `Cc1cc(N2CC(CF)C2)ccc1-c1cn(CC2CCCCO2)nn1` (stereo not drawn) [Compound I-544] belongs 25 to 50%.
As to `Cc1ccc(C#CC2CC2)cc1Cc1cn(C[C@H]2CCCCO2)nn1` [Compound I-587], the inhibition at 10 µM was 50 to 75% and the IC50 lay within 300 to 1000 nM.
`Cc1cc(C#CCN(C)CC2CC2)cnc1-c1cn(CC2CCCCO2)nn1` (stereo not drawn) [Compound I-251] had an inhibition at 10 µM greater than 75%.
`CCc1cc(C#CCN2CC(C)(C)C2)cnc1-c1cn(CC2OCC(C)(C)CO2)nn1` [Compound I-666] had an inhibition at 2 µM greater than 75% and an IC50 of no more than 300 nM.
